Results from ChEMBL document CHEMBL5212743, “Selectivity Literature for EUbOPEN Chemogenomics Library wave 3” (2023).
pIC50, pKd, pKi: −log10 of the molar value.

Tests used:
[1] = target: Serine/threonine-protein kinase BRSK2 (Homo sapiens, UniProt Q8IWQ3); test: Selectivity interaction (KinomeScan (DiscoverX, competition-binding assay)) EUB0000289c BRSK2
[2] = target: Serine/threonine-protein kinase BRSK2 (Homo sapiens) (UniProt Q8IWQ3); test: Selectivity interaction (KinomeScan (DiscoverX)) EUB0000289c BRSK2; conditions: at 1 µM
[3] = target: Ephrin type-A receptor 1 (Homo sapiens) (UniProt P21709); test: Selectivity interaction (KinomeScan (DiscoverX)) EUB0000289c EPHA1; conditions: at 1 µM
[4] = target: Ephrin type-A receptor 1 (Homo sapiens, UniProt P21709); test: Selectivity interaction (KinomeScan (DiscoverX, competition-binding assay)) EUB0000289c EPHA1
[5] = target: G protein-coupled receptor kinase 3 (Homo sapiens, UniProt P35626); test: Selectivity interaction (KinomeScan (DiscoverX, competition-binding assay)) EUB0000289c ADRBK2
[6] = target: T1, Serine/threonine-protein kinase Nek7 (Homo sapiens, UniProt Q8TDX7); test: Selectivity interaction (KinomeScan (DiscoverX)) EUB0000289c NEK7; conditions: at 1 µM
[7] = target: T2, G protein-coupled receptor kinase 3 (Homo sapiens) (UniProt P35626); test: Selectivity interaction (KinomeScan (DiscoverX)) EUB0000289c ADRBK2; conditions: at 1 µM
T2 sequence (whole entry): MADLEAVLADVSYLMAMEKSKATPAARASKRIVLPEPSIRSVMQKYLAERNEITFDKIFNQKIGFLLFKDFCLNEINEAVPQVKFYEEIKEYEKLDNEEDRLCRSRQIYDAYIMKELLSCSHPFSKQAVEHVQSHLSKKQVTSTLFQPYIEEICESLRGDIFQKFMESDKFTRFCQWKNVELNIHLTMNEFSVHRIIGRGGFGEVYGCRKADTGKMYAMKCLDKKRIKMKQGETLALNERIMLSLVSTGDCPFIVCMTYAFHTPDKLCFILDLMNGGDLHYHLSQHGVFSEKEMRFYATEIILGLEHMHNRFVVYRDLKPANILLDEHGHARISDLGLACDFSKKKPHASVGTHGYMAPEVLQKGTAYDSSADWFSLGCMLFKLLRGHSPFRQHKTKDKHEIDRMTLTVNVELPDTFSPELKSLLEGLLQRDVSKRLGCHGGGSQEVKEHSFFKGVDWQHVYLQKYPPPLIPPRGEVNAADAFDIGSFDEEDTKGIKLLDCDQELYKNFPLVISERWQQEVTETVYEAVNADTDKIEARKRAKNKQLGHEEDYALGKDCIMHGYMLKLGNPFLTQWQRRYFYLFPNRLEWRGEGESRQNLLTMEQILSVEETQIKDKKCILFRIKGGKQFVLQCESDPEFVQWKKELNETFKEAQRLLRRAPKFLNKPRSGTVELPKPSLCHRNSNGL

[8] = target: T1, Serine/threonine-protein kinase Nek7; test: Selectivity interaction (KinomeScan (DiscoverX, competition-binding assay)) EUB0000289c NEK7
[9] = target: Lysosomal Pro-X carboxypeptidase (Homo sapiens) (UniProt P42785); test: Selectivity interaction (CEREP panel (Eurofins, panel of ion channels, receptors, GPCRs, and enzymes (ligand binding assay))) EUB0000289c PRCP; conditions: at 3 µM
[10] = target: T3, Histamine H1 receptor (Homo sapiens, UniProt P35367); test: Selectivity interaction (GPCR panel (PDSP screen)) EUB0000289c HRH1
[11] = target: 5-hydroxytryptamine receptor 2B (Homo sapiens, UniProt P41595); test: Selectivity interaction (GPCR panel (PDSP screen)) EUB0000748a HTR2B
[12] = target: T4, Sigma non-opioid intracellular receptor 1 (Homo sapiens, UniProt Q99720); test: Selectivity interaction (GPCR panel (PDSP screen)) EUB0000748a SIGMAR1
[13] = target: Tyrosine-protein kinase HCK (Homo sapiens, UniProt P08631); test: Selectivity interaction (Z’-LYTE assay) EUB0000638a HCK
[14] = target: Receptor tyrosine-protein kinase erbB-2 (Homo sapiens) (UniProt P04626); test: Selectivity interaction (KinomeScan (DiscoverX)) EUB0000638a ERBB2; conditions: at 1 µM
[15] = target: Tyrosine-protein kinase Blk (Homo sapiens, UniProt P51451); test: Selectivity interaction (Z’-LYTE assay) EUB0000638a BLK
[16] = target: Tyrosine-protein kinase Lck (Homo sapiens, UniProt P06239); test: Selectivity interaction (Z’-LYTE assay) EUB0000638a LCK
[17] = target: Tyrosine-protein kinase Yes (Homo sapiens, UniProt P07947); test: Selectivity interaction (Z’-LYTE assay) EUB0000638a YES1
[18] = target: Tyrosine-protein kinase Fyn (Homo sapiens, UniProt P06241); test: Selectivity interaction (Z’-LYTE assay) EUB0000638a FYN
[19] = target: Receptor tyrosine-protein kinase erbB-4 (Homo sapiens) (UniProt Q15303); test: Selectivity interaction (KinomeScan (DiscoverX)) EUB0000638a ERBB4; conditions: at 1 µM
[20] = target: Tyrosine-protein kinase Fgr (Homo sapiens, UniProt P09769); test: Selectivity interaction (Z’-LYTE assay) EUB0000638a FGR
[21] = target: Tyrosine-protein kinase Lyn (Homo sapiens, UniProt P07948); test: Selectivity interaction (Z’-LYTE assay) EUB0000638a LYN
[22] = target: Proto-oncogene tyrosine-protein kinase Src (Homo sapiens, UniProt P12931); test: Selectivity interaction (Z’-LYTE assay) EUB0000638a SRC
[23] = target: Tyrosine-protein kinase Tec (Homo sapiens) (UniProt P42680); conditions: at 1 µM
[24] = target: T4, Sigma non-opioid intracellular receptor 1; test: Selectivity interaction (GPCR panel (PDSP screen)) EUB0000289bCl SIGMAR1
[25] = target: T5, Mitogen-activated protein kinase kinase kinase 13 (Homo sapiens) (UniProt O43283); test: Selectivity interaction (KinomeScan (DiscoverX)) EUB0000547a MAP3K13; conditions: at 1 µM
T5 sequence (whole entry): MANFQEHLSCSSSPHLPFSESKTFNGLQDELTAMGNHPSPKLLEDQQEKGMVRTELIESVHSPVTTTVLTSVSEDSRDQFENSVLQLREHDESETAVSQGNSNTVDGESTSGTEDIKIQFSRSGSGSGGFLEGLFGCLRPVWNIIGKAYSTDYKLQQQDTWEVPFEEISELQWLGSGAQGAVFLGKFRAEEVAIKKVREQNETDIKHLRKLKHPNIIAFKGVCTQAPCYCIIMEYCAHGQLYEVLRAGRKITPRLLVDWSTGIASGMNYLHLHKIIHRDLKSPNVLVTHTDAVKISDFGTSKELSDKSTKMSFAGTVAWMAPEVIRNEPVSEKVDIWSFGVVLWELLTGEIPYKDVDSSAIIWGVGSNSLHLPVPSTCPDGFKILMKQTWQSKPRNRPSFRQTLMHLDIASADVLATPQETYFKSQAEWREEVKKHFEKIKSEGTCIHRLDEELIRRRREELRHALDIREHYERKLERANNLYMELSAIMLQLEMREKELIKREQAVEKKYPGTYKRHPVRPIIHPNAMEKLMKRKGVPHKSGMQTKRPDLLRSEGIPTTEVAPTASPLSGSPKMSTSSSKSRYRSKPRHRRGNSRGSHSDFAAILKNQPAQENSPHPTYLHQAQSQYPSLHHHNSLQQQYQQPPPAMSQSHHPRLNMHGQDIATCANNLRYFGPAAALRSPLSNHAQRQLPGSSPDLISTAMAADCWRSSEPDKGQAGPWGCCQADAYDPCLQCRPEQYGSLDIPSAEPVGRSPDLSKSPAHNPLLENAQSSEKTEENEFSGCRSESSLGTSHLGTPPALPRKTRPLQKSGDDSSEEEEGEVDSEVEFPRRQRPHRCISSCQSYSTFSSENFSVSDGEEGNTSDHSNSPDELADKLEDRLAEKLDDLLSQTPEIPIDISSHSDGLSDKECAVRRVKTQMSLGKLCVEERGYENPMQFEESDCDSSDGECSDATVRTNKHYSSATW

[26] = target: Tyrosine-protein kinase ZAP-70 (Homo sapiens) (UniProt P43403); test: Selectivity interaction (KinomeScan (DiscoverX)) EUB0000547a ZAP70; conditions: at 1 µM
[27] = target: T6, Gamma-aminobutyric acid receptor subunit alpha-1 (Homo sapiens, UniProt P14867); test: Selectivity interaction (GPCR panel (PDSP screen)) EUB0000547a GABRA1
T6 sequence (P14867 whole entry): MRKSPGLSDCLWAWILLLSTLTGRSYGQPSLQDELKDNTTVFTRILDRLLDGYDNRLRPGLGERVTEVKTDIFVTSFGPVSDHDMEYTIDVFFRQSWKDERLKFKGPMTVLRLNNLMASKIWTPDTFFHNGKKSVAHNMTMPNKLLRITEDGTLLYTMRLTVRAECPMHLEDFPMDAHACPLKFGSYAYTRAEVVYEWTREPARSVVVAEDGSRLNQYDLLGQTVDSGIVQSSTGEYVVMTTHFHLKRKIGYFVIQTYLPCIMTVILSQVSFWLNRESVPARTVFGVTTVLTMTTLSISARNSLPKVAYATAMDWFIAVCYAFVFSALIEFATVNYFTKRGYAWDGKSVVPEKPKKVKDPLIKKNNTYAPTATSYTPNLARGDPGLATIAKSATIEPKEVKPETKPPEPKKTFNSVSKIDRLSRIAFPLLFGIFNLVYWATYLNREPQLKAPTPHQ

[28] = target: Alpha-2B adrenergic receptor (Homo sapiens, UniProt P18089); test: Selectivity interaction (GPCR panel (PDSP screen)) EUB0000309b ADRA2B
[29] = target: Delta-type opioid receptor (Homo sapiens) (UniProt P41143); test: Selectivity interaction (CEREP panel (Eurofins, receptors, ion channels, and other enzymes)) EUB0000348aPTSA OPRD1; conditions: at 10 µM
[30] = target: Dual specificity protein kinase CLK4 (Homo sapiens) (UniProt Q9HAZ1); test: Selectivity interaction (KinomeScan (DiscoverX)) EUB0000348aPTSA CLK4; conditions: at 1 µM
[31] = target: Cyclin-dependent kinase 5 (Homo sapiens) (UniProt Q00535); test: Selectivity interaction (KinomeScan (DiscoverX)) EUB0000348aPTSA CDK5; conditions: at 1 µM
[32] = target: Endothelin receptor type B (Homo sapiens) (UniProt P24530); conditions: at 10 µM
[33] = target: T3, Histamine H1 receptor; test: (§1) Selectivity interaction (GPCR panel (PDSP screen)) EUB0000348aPTSA HRH1; conditions: at 10 µM
[34] = target: T5, Mitogen-activated protein kinase kinase kinase 13 (Homo sapiens); test: Selectivity interaction (KinomeScan (DiscoverX)) EUB0000348aPTSA MAP3K13; conditions: at 1 µM
[35] = target: T3, Histamine H1 receptor; test: as §1

T3 sequence (P35367 whole entry): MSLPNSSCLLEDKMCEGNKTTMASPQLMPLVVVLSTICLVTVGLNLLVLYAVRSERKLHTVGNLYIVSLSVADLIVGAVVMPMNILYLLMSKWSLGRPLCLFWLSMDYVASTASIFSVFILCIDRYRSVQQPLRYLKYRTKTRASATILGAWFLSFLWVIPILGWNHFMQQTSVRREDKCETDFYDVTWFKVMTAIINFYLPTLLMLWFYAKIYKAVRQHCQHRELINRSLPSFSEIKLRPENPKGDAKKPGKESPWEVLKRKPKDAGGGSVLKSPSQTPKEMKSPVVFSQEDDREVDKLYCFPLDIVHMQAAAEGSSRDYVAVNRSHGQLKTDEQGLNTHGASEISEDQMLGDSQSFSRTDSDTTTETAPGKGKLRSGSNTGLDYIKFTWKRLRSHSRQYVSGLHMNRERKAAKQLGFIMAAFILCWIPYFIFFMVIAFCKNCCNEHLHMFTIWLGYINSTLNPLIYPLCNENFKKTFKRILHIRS
T4 sequence (Q99720 whole entry): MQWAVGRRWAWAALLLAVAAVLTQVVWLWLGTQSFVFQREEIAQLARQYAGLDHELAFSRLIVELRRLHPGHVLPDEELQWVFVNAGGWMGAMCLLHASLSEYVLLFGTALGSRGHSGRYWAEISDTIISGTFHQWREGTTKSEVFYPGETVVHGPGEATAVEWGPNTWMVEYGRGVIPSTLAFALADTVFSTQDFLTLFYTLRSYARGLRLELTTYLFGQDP
Sequence of Serine/threonine-protein kinase BRSK2 (Homo sapiens) (Q8IWQ3 whole entry): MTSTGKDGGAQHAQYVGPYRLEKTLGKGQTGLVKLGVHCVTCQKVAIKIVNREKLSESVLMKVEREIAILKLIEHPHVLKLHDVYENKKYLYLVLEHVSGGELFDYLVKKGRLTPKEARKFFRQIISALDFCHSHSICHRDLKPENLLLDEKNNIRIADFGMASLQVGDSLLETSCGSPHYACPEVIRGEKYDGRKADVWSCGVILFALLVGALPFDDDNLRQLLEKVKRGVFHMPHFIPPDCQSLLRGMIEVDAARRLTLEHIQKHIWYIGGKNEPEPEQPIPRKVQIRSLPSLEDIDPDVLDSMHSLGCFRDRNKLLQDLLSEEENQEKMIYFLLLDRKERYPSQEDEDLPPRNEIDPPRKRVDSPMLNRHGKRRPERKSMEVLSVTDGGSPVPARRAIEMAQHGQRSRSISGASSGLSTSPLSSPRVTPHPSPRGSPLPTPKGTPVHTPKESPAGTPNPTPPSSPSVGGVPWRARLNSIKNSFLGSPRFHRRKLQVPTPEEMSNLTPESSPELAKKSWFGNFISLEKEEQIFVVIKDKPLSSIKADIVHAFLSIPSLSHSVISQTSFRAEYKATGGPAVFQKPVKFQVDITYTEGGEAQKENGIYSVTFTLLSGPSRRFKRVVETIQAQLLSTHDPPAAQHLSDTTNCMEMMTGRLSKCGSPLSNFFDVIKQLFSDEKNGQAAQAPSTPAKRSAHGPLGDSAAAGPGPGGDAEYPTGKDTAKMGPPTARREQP
Sequence of Serine/threonine-protein kinase BRSK2 (Q8IWQ3 whole entry): as above
Sequence of Tyrosine-protein kinase Fyn (P06241 whole entry): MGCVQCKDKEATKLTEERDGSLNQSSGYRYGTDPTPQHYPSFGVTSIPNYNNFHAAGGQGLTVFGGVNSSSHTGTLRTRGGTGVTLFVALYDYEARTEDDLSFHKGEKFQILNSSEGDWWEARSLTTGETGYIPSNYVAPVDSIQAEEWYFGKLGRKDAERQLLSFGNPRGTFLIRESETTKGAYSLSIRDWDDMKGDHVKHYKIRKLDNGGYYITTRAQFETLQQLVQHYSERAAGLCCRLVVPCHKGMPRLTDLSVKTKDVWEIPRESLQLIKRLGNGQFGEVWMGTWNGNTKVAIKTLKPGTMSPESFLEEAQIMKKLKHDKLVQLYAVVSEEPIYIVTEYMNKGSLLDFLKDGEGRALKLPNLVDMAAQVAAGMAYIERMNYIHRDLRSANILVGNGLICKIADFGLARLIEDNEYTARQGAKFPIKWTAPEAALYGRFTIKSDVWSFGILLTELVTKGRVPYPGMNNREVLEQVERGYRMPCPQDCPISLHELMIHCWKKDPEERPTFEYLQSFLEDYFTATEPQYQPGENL
Sequence of 5-hydroxytryptamine receptor 2B (P41595 whole entry): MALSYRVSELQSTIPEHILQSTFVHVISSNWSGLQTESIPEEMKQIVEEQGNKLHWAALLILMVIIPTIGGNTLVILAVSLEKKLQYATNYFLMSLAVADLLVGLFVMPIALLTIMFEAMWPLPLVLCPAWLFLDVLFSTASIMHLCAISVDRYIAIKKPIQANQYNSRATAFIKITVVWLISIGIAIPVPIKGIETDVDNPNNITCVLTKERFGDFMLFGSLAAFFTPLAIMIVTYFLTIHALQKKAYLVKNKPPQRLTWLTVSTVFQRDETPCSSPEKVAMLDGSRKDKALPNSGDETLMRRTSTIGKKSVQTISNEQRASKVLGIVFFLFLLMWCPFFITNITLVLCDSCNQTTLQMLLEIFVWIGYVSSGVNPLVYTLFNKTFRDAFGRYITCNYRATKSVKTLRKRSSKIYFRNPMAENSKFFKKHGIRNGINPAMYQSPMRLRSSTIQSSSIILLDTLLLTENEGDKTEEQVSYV
Sequence of Tyrosine-protein kinase Fgr (P09769 whole entry): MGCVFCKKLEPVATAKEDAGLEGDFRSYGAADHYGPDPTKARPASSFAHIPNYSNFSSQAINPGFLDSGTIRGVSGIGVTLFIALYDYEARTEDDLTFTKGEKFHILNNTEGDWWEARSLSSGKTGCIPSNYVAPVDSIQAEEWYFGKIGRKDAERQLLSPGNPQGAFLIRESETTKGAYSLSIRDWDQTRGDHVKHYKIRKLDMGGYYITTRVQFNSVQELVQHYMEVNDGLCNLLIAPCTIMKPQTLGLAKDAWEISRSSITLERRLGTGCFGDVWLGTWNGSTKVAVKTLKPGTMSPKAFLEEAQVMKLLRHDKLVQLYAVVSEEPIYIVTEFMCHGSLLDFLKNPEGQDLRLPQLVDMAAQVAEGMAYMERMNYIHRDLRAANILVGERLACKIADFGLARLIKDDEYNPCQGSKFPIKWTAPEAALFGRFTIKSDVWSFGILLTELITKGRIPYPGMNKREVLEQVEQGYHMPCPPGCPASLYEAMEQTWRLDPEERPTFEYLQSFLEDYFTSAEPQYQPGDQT
Sequence of Tyrosine-protein kinase Lyn (P07948 whole entry): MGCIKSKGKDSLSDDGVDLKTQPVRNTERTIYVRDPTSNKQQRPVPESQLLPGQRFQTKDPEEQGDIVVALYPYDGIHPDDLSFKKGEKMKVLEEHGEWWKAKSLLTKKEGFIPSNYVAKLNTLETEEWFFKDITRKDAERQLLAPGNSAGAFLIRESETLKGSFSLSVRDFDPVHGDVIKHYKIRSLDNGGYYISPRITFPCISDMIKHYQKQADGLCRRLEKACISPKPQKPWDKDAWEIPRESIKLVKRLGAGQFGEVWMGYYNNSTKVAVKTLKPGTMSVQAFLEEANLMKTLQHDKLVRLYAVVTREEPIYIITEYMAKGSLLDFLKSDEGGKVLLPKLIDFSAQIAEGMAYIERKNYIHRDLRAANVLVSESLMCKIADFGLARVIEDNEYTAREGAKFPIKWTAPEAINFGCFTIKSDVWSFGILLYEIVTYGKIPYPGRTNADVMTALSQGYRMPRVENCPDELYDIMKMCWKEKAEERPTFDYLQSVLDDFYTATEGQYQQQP
Sequence of Receptor tyrosine-protein kinase erbB-2 (Homo sapiens) (P04626 whole entry): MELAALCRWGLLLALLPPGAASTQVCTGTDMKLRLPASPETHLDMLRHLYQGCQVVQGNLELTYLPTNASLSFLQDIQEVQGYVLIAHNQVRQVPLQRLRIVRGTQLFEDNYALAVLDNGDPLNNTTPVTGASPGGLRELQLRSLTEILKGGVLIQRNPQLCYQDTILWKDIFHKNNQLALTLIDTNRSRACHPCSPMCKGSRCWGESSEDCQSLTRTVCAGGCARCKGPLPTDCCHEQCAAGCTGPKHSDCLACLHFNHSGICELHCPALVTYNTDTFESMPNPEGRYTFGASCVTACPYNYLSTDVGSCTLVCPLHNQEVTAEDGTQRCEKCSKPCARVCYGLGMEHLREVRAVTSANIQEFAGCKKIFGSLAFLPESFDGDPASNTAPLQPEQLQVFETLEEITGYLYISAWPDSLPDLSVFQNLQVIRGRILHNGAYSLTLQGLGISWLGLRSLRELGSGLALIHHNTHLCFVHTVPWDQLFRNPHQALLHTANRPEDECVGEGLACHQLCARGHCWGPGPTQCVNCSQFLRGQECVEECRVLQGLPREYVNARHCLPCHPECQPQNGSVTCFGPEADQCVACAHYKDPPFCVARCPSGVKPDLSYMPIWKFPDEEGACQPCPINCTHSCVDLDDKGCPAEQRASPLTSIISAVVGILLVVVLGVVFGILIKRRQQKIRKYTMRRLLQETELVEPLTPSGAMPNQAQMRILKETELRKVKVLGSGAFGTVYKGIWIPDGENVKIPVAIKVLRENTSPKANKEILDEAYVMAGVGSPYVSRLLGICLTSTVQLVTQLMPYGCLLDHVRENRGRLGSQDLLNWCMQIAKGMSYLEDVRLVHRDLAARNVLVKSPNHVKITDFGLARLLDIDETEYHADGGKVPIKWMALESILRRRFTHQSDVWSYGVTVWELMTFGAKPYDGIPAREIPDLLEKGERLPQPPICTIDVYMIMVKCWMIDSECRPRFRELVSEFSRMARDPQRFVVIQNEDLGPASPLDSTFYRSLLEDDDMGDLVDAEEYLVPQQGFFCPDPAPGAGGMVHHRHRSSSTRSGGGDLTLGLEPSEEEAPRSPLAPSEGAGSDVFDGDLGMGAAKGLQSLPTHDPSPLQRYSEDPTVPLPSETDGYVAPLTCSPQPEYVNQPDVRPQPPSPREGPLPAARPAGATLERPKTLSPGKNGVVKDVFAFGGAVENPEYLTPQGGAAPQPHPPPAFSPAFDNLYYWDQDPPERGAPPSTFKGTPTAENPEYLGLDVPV

Compound Cn1cncc1[C@](O)(COc1ccc(C#N)cc1-c1ccc(OC(F)(F)F)cc1)c1ccc(C#N)cc1 [ABT-100] has a pKd [1] of less than 5.00, a % of control [2] of 48% and a % of control [3] of 38%. It also gave a pKd [4] of less than 5.00, a pKd [5] of less than 5.00 and a % of control [6] of 46%. The % of control [7] was 48%, the pKd [8] was less than 5.00 and the % of inhibition [9] was 97%. The pKi [10] was less than 5.00.
With Cn1c(-c2csc(C3CCN(CC4=NC5N=CC=CC5N4)CC3)n2)nc2ccccc21 (stereo not given) [BAY-070] the pKi [11] was 5.81 and the pKi [12] was 5.90.
Work on CC#CC(=O)N1CCC[C@H]1c1nc(-c2ccc(C(=O)Nc3ccccn3)cc2)c2c(N)nccn12 [ACALABRUTINIB] yielded a pIC50 [13] of less than 5.00, a % of control [14] of 2.1% and a pIC50 [15] of less than 5.00. The pIC50 [16] was less than 5.00, the pIC50 [17] was less than 5.00 and the pIC50 [18] was less than 5.00. The % of control [19] was 4.3%, the pIC50 [20] was less than 5.00 and the pIC50 [21] was less than 5.00. The pIC50 [22] was less than 5.00 and the % of control [23] was 6.4%.
CCCCN(CCCC)C(=O)CN1C[C@@H](c2cc(OC)c3c(c2)OCO3)[C@H](C(=O)O)[C@H]1CC(C)(C)CCC was tested, and the pKi [24] was 6.54.
In the case of CCC(=N\O)/C(C)=C/c1ccc(F)c(C)c1 [A-226], the % of control [25] was 23%, the % of control [26] was 38% and the pKi [27] was 5.43.
With NS(=O)(=O)c1cc(NC(=O)Cc2ccccc2)ccc1Oc1cccc(Cl)c1 [BAY-1797] the pKi [28] was 5.34.
In the case of CCCCN(CCCC)C(=O)CN1C[C@H](c2cc(OC)c3c(c2)OCO3)[C@@H](C(=O)O)[C@@H]1CC(C)(C)CCC, the % of inhibition [29] was 62%, the % of control [30] was 0% and the % of control [31] was 0%. It also gave a % of inhibition [32] of 56%, a % of inhibition [33] of 54% and a % of control [34] of 0%. For the same compound, the pKi [35] was less than 5.00.
